Results on 18 molecules are retold here after PubChem BioAssay AID264 (DTP/NCI, 2004).

“And” between values parts separate entries of the source, which are not always exact repeats. Identical values can stand only once. Records with an inconclusive call do not appear.

This assay has as its system nude mice, LX-1 lung xenograft intrarenal, tumor weight T/C. As to the kind of experiment: NCI In Vivo Anticancer Drug Screen. Data for tumor model Human Lung LX-1 Xenograft (intrarenal inoculation) in NU/NU Swiss (nude) mice. The following applies: endpoint: mean tumor weight change, higher = larger tumour. As to the method: The antitumor activity of compounds was measured in mice bearing transplantable tumors. Survival or tumor size were measured and the results are expressed as the measurement made in the treated group (T) divided by the measurement made in the vehicle treated control group (C). The tumor model used in this assay is Human Lung LX-1 Xenograft (intrarenal inoculation) in NU/NU Swiss (nude) mice

Setting [1] is: dose: 1200.0 mg/kg/injection, schedule: Q04DX003 (sc), vehicle: saline with Tween-80.
Where [2] appears, read: dose: 300.0 mg/kg/injection, schedule: Q04DX003 (sc), vehicle: saline.
Setting [3] is: dose: 600.0 mg/kg/injection, schedule: Q04DX003 (sc), vehicle: saline.
Setting [4] is: dose: 1200.0 mg/kg/injection, schedule: Q04DX003 (sc), vehicle: saline.
[5] abbreviates: dose: 12.5 mg/kg/injection, schedule: Q01DX010 (sc), vehicle: saline with Tween-80.
Where [6] appears, read: dose: 25.0 mg/kg/injection, schedule: Q01DX010 (sc), vehicle: saline with Tween-80.
Where [7] appears, read: dose: 50.0 mg/kg/injection, schedule: Q01DX010 (sc), vehicle: saline with Tween-80.
Where [8] appears, read: dose: 300.0 mg/kg/injection, schedule: Q04DX003 (sc), vehicle: saline with Tween-80.
The mark [9] stands for this setting: dose: 600.0 mg/kg/injection, schedule: Q04DX003 (sc), vehicle: saline with Tween-80.
Where [10] appears, read: dose: 2400.0 mg/kg/injection, schedule: Q04DX003 (sc), vehicle: saline with Tween-80.
Where [11] appears, read: dose: 200.0 mg/kg/injection, schedule: Q01DX010 (sc), vehicle: saline with Tween-80.

Take `CC(C)CCCCCCCCCCCCC(=O)NCC(=O)NC1C(C)OC(Nc2ncnc3nc[nH]c23)C(O)C1O` (stereo not drawn): the T/C by setting is: (dose: 4.0 mg/kg/injection, schedule: Q01DX010 (sc), vehicle: distilled water + Tween-80) 31 % of control and 33 % of control; (dose: 8.0 mg/kg/injection, schedule: Q01DX010 (sc), vehicle: distilled water + Tween-80) 24 % of control; (dose: 32.0 mg/kg/injection, schedule: Q01DX010 (sc), vehicle: distilled water + Tween-80) 28 % of control.

Regarding `C[Si](C)(CCl)N[Si](C)(C)CCl`, under setting [1], the T/C was 81 % of control.

Take `COc1ccc(CC2C(=O)NC(C)C(=O)N(C)C3Cc4ccc(cc4)Oc4cc(ccc4O)CC(C(=O)NC(C)C(=O)NC(C)C(=O)N2C)N(C)C3=O)cc1` (stereo not drawn): the T/C is 61 % of control (dose: 4.0 mg/kg/injection, schedule: Q04DX003 (sc), vehicle: saline with Tween-80); 25 % of control (dose: 8.0 mg/kg/injection, schedule: Q04DX003 (sc), vehicle: saline with Tween-80); 34 % of control (dose: 16.0 mg/kg/injection, schedule: Q04DX003 (sc), vehicle: saline with Tween-80); 27 % of control (dose: 32.0 mg/kg/injection, schedule: Q04DX003 (sc), vehicle: saline with Tween-80).

Regarding `Nc1cccc(=O)[nH]1`, the T/C under setting [2] is 100 % of control, the T/C under setting [3] was 110 % of control and the T/C under setting [4] is 105 % of control.

With `CCOC(=O)C(CC(C)C)NC(=O)C(Cc1ccc(N(CCCl)CCCl)cc1)NC(C)=O` (stereo not drawn), the T/C runs as follows: under setting [5], 51 % of control; under setting [6], 37 % of control; under setting [7], 28 % of control.

On to `C/C(=N\N=C(/[Se])N1CC2CCC(CC2)C1)c1ccccn1`, for which the T/C is 100 % of control (dose: 12.5 mg/kg/injection, schedule: Q04DX003 (sc), vehicle: Klucel (hydroxypropylcellulose) (HPC)); 79 % of control (dose: 25.0 mg/kg/injection, schedule: Q04DX003 (sc), vehicle: Klucel (hydroxypropylcellulose) (HPC)); 85 % of control (dose: 50.0 mg/kg/injection, schedule: Q04DX003 (sc), vehicle: Klucel (hydroxypropylcellulose) (HPC)); 253 % of control (dose: 100.0 mg/kg/injection, schedule: Q04DX003 (sc), vehicle: Klucel (hydroxypropylcellulose) (HPC)).

As for `CCCCCCCCCCS(=O)CC(CO)NC(=O)/C=C/c1c(C)[nH]c(=O)[nH]c1=O` (stereo not drawn), the T/C runs as follows: (dose: 9.38 mg/kg/injection, schedule: Q04DX003 (sc), vehicle: distilled water + Tween-80) 108 % of control; (dose: 18.75 mg/kg/injection, schedule: Q04DX003 (sc), vehicle: distilled water + Tween-80) 124 % of control.

For the molecule `[CH3][Sn]([CH3])([Cl])[S]CCN`, the T/C runs as follows: (dose: 18.75 mg/kg/injection, schedule: Q04DX003 (sc), vehicle: saline) 62 % of control; (dose: 37.5 mg/kg/injection, schedule: Q04DX003 (sc), vehicle: saline) 95 % of control; (dose: 75.0 mg/kg/injection, schedule: Q04DX003 (sc), vehicle: saline) 82 % of control.

Take `CN(CO)c1nc(N(C)CO)nc(N(C)CO)n1`: the T/C is 92 % of control (dose: 25.0 mg/kg/injection, schedule: Q01DX010 (sc), vehicle: saline); 57 % of control (dose: 50.0 mg/kg/injection, schedule: Q01DX010 (sc), vehicle: saline); 49 % of control (dose: 100.0 mg/kg/injection, schedule: Q01DX010 (sc), vehicle: saline).

Regarding `CCOC(=O)c1[nH]c2cccc3c2c1CC(Br)C3=O` (stereo not drawn), the T/C under setting [8] was 87 % of control, the T/C under setting [9] was 88 % of control, the T/C under setting [1] is 84 % of control and the T/C under setting [10] was 67 % of control.

`COc1cccc2c1C(=O)c1c(O)c3c(c(O)c1C2=O)C[C@@](O)(/C(CO)=N/NC(=O)c1ccc(Cl)c(Cl)c1)C[C@@H]3OC1CC(N)C(O)C(C)O1` (stereo partly drawn): the T/C by setting is: (dose: 8.0 mg/kg/injection, schedule: Q01DX010 (sc), vehicle: water) 28 % of control; (dose: 16.0 mg/kg/injection, schedule: Q01DX010 (sc), vehicle: water) 2 % of control; (dose: 24.0 mg/kg/injection, schedule: Q04DX003 (sc), vehicle: water) 54 % of control; (dose: 48.0 mg/kg/injection, schedule: Q04DX003 (sc), vehicle: water) 66 % of control; (dose: 96.0 mg/kg/injection, schedule: Q04DX003 (sc), vehicle: water) 33 % of control; (dose: 192.0 mg/kg/injection, schedule: Q04DX003 (sc), vehicle: water) 30 % of control.

For the molecule `Cc1ccc2c(c1)C(=O)N(CC[P+](c1ccccc1)(c1ccccc1)c1ccccc1)C2=O`, the T/C by setting is: (dose: 25.0 mg/kg/injection, schedule: Q01DX010 (sc), vehicle: Klucel (hydroxypropylcellulose) (HPC)) 51 % of control; (dose: 50.0 mg/kg/injection, schedule: Q01DX010 (sc), vehicle: Klucel (hydroxypropylcellulose) (HPC)) 37 % of control.

In the case of `O=C(O)C1Cc2nc[nH]c2CN1CO` (stereo not drawn), the T/C runs as follows: under setting [8], 74 % of control; under setting [9], 85 % of control; under setting [1], 41 % of control; under setting [10], 87 % of control.

As to `CC[C@@]1(O)C(=O)OCc2c1cc1n(c2=O)Cc2cc3cc(O)ccc3nc2-1`, the T/C (dose: 32.0 mg/kg/injection, schedule: Q04DX003 (sc), vehicle: suspension in saline) was 12 % of control and 14 % of control.

In the case of `C1OCN2CSCC12` (stereo not drawn), the T/C by setting is: (dose: 50.0 mg/kg/injection, schedule: Q04DX003 (sc), vehicle: saline with Tween-80) 76 % of control; (dose: 100.0 mg/kg/injection, schedule: Q04DX003 (sc), vehicle: saline with Tween-80) 103 % of control; (dose: 200.0 mg/kg/injection, schedule: Q04DX003 (sc), vehicle: saline with Tween-80) 71 % of control; (dose: 400.0 mg/kg/injection, schedule: Q04DX003 (sc), vehicle: saline with Tween-80) 63 % of control.

Turning to `CN(C)[C@@H]1C(=O)C(C(N)=O)=C(O)[C@@]2(O)C(=O)C3=C(O)c4c(O)ccc(Cl)c4[C@@](C)(O)[C@H]3C[C@@H]12`, the T/C by setting is: under setting [2], 81 % of control; under setting [3], 200 % of control; under setting [4], 220 % of control.

For `C/C(=N/NC(N)=S)c1ccc2ccccc2c1`, the T/C is 63 % of control under setting [5]; 42 % of control under setting [6]; 61 % of control under setting [11]; 39 % of control (dose: 400.0 mg/kg/injection, schedule: Q01DX010 (sc), vehicle: saline with Tween-80).

As to `CC(=O)Nc1ccc(C(=O)C=O)cc1`, the T/C was 69 % of control under setting [6]; 103 % of control under setting [7]; 35 % of control (dose: 100.0 mg/kg/injection, schedule: Q01DX010 (sc), vehicle: saline with Tween-80); 45 % of control under setting [11].
